Laboratory results published in patent US20240034729A9, “HETEROCYCLIC COMPOUND, INTERMEDIATE, PREPARATION METHOD THEREFOR AND APPLICATION THEREOF” (WUHAN LL SCIENCE AND TECHNOLOGY DEVELOPMENT CO., LTD., priority 2018, published 2024).
Like-named read-outs stand apart in the source and are kept apart here.

Key:
[1] = In vitro metabolic stability, rat liver microsome; type: in vitro ADME; conditions: liver microsomes, 1 mg/mL liver microsome protein, 37° C., NA = essentially not metabolized, read-out: T1/2 in rat liver microsome
Protocol: (§1) The in vitro metabolic stability of the compounds disclosed herein was determined through incubation of liver microsomes of various species. […] At each time point, 100 μL of the reaction mixture was added into a centrifuge tube containing 400 μL of internal standard working solution (containing a 200 ng/mL solution of dexamethasone, diclofenac, tolbutamide and labetalol in acetonitrile) precooled at 0° C. so as to terminate the reaction, and the mixture was then centrifuged at 10,000 g for 10 min at 4° C. The supernatant was collected for LC-MS assay so as to obtain the values of in vitro metabolic half-life of the test compounds in liver microsomes of various species.

[2] = In vitro cytotoxicity assay, CCK-8 method; type: cell-based; conditions: human, HepG2 cells
Protocol: In vitro cytotoxicity assay for the compounds disclosed herein was performed in HepG2 cells using the CCK-8 method. HepG2 cells (Beina Bio) in the logarithmic growth phase were collected, the concentration of cell suspension was adjusted, and then the cells were plated on a 96-well cell culture plate at 50,000 cells/well. The cells were then incubated overnight in a cell incubator of 5% […] at 37° C., and after 80-90% cell confluence was achieved, test compounds or vehicle (DMSO) at various concentration gradients were added after medium change. The plate was incubated in a cell incubator of 5% […] at 37° C. for 48 h. After the treatment, the medium in the plate was discarded. The plate was washed twice with PBS, added with CCK-8 working solution (Beyotime) at 100 μL per well, and then incubated at 37° C. for 1.5 h away from light. Absorbance at OD450nm was measured for each well on a microplate reader, and CC50 value of each compound was analyzed and calculated.

[3] = biological target: hP2X3 (human purinergic P2X receptor subtype 3) (Homo sapiens (Human), UniProt P56373); assay: FLIPR calcium assay, hP2X3 expressed in HEK293 cells; type: cell-based; conditions: read-out: P2X3 IC50
Sequence of hP2X3 (human purinergic P2X receptor subtype 3) (P56373 whole entry): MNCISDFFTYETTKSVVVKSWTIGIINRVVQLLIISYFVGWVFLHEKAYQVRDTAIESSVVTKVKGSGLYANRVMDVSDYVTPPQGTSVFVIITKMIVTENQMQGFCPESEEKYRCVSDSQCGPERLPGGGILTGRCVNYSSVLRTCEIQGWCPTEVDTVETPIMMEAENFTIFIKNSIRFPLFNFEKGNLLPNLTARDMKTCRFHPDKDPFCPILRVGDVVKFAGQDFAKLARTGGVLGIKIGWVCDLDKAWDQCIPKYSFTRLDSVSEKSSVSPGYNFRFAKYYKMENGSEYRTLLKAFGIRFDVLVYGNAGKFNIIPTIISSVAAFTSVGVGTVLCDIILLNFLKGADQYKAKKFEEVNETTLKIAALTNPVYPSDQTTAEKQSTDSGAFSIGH

[4] = In vitro metabolic stability, guinea pig liver microsome; type: in vitro ADME; conditions: liver microsomes, 1 mg/mL liver microsome protein, 37° C., NA = essentially not metabolized, read-out: T1/2 in guinea pig liver microsome
Protocol: The in vitro metabolic stability of the compounds disclosed herein was determined through incubation of liver microsomes of various species. A proper amount of test compound was added into a liver microsome reaction system (1 mg/mL liver microsome protein, 25 U/mL glucose-6 phosphate dehydrogenase, 1 mM NADP, 6 mM D-glucose 6-phosphate and 5 mM MgCl2), and then the mixture was incubated in a water bath kettle at 37° C. to start the reaction. At each time point, 100 μL of the reaction mixture was added into a centrifuge tube containing 400 μL of internal standard working solution (containing a 200 ng/mL solution of dexamethasone, diclofenac, tolbutamide and labetalol in acetonitrile) precooled at 0° C. so as to terminate the reaction, and the mixture was then centrifuged at 10,000 g for 10 min at 4° C. The supernatant was collected for LC-MS assay so as to obtain the values of in vitro metabolic half-life of the test compounds in liver microsomes of various species.

[5] = biological target: hP2X2/3 (heterodimeric receptors formed by human purinergic P2X receptors subtype 2 and subtype 3) (Homo sapiens (Human), UniProt P56373+Q9UBL9); assay: FLIPR calcium assay, hP2X2/3 expressed in HEK293 cells (P2X2/3 receptor selectivity); type: cell-based; conditions: for IC50: HEK293 cells expressing hP2X2/3, agonist BZ-ATP 5 μM, unit inferred
Sequence of hP2X2/3 (heterodimeric receptors formed by human purinergic P2X receptors subtype 2 and subtype 3) (P56373 whole entry): as above
Sequence of hP2X2/3 (heterodimeric receptors formed by human purinergic P2X receptors subtype 2 and subtype 3) (Q9UBL9 whole entry): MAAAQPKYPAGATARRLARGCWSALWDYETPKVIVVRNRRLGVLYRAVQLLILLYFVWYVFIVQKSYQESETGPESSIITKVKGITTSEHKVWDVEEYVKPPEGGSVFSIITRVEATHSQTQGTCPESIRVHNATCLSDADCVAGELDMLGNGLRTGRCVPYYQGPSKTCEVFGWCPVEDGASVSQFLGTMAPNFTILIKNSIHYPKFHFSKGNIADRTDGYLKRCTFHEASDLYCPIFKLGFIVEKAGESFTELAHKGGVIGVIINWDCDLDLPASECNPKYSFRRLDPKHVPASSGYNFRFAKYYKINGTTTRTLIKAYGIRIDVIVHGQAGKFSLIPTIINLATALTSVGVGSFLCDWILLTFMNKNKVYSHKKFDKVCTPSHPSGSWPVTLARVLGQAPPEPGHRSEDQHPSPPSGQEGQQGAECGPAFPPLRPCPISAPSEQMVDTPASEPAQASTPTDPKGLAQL

[6] = In vitro metabolic stability, human liver microsome; type: in vitro ADME; conditions: liver microsomes, 1 mg/mL liver microsome protein, 37° C., NA = essentially not metabolized, read-out: T1/2 in human liver microsome
Protocol: as §1

| IC50 ([3]; HEK293 cells expressing hP2X3, agonist BZ-ATP 2.5 μM, class symbols) [µM] | SMILES | half-life [1] [h] | CC50 at 48 h [2] [µM] | IC50 [3] [µM] | half-life [4] [h] | Folds of selectivity [5] | IC50 [5] [µM] | half-life [6] [h] |
| --- | --- | --- | --- | --- | --- | --- | --- | --- |
| – | COC(=O)N1CCO[C@@H](Cc2c(-c3cnc(-n4cccn4)cc3C)nc3cc(C)ccn23)C1 [Compound 168, methyl (S)-2-((7-methyl-2-(4-methyl-6-(1H-pyrazol-1-yl)pyridin-3-yl)imidazo[1,2-a]pyridin-3-yl)methyl)morpholine-4-carboxylate] | 0.96 | > 100 | 0.01 to 0.05 | 0.487 | A (key: A: folds of selectivity >1000; B: 200< folds of selectivity ≤1000; C: folds of selectivity ≤200) | > 60 | 8.71 |
| – | COC(=O)Nc1cc(F)c(-c2nc3cc(C)ccn3c2C[C@H]2CN(C(=O)OC)CCO2)c(F)c1 [Compound 3, methyl (S)-2-((2-(2,6-difluoro-4-(methoxycarbonylamino)phenyl)-7-methylimidazo[1,2-a]pyridin-3-yl)-methyl)morpholine-4-carboxylate] | 0.479 | 59.3 | 0.01 to 0.05 | 0.842 | A (key: A: folds of selectivity >1000; B: 200< folds of selectivity ≤1000; C: folds of selectivity ≤200) | > 60 | 4.34 |
| – | COC(=O)N1CCO[C@@H](Cc2c(-c3c(F)cc(S(N)(=O)=O)cc3F)nc3cc(C)c(F)cn23)C1 [Compound 182, methyl (S)-2-((2-(2,6-difluoro-4-sulfamoylphenyl)-6-fluoro-7-methylimidazo[1,2-a]pyridin-3-yl)methyl)morpholine-4-carboxylate] | 0.182 | > 200 | 0.0035 | 1.02 | – | – | 3.62 |
| – | COC(=O)N1CCO[C@@H](Cc2c(-c3c(F)cc(S(N)(=O)=O)cc3F)nc3cc(C)ccn23)C1 [Compound 171, methyl (S)-2-((2-(2,6-difluoro-4-sulfamoylphenyl)-7-methylimidazo[1,2-a]pyridin-3-yl)methyl)morpholine-4-carboxylate] | 0.141 | 200 | 0.0021 | 2.33 | 45975 | 36.8 | 8.72 |
| – | COC(=O)N1CCO[C@@H](Cc2c(-c3cc(F)c(S(N)(=O)=O)cc3Cl)nc3cc(Cl)ccn23)C1 [Compound 181, methyl (S)-2-((7-chloro-2-(2-chloro-5-fluoro-4-sulfamoylphenyl)imidazo[1,2-a]pyridin-3-yl)methyl)morpholine-4-carboxylate] | 3.13 | 138 | 0.0018 | 3.91 | – | – | 23.3 |
| – | COC(=O)N1CCO[C@@H](Cc2c(-c3c(F)cc(-c4ccc[nH]4)cc3F)nc3cc(C)ccn23)C1 [Compound 4, methyl (S)-2-((2-(2,6-difluoro-4-(1H-pyrrol-2-yl)phenyl)-7-methylimidazo[1,2-a]pyridin-3-yl)methyl)morpholine-4-carboxylate] | 0.0818 | 13.2 | < 0.01 | 0.073 | A (key: A: folds of selectivity >1000; B: 200< folds of selectivity ≤1000; C: folds of selectivity ≤200) | 14.3 | 1.02 |
| – | COC(=O)N1CCO[C@@H](Cc2c(-c3c(F)cc(-c4ccccn4)cc3F)nc3cc(C)ccn23)C1 [Compound 17, methyl (S)-2-((2-(2,6-difluoro-4-(pyridin-2-yl)phenyl)-7-methylimidazo[1,2-a]pyridin-3-yl)methyl)morpholine-4-carboxylate] | 0.323 | 51 | 0.01 to 0.05 | 0.143 | B (key: A: folds of selectivity >1000; B: 200< folds of selectivity ≤1000; C: folds of selectivity ≤200) | 29.8 | 16.6 |
| 0.05 to 0.2 | COC(=O)N1CCO[C@@H](Cc2c(-c3c(F)cc(N4C(=O)CCC4=O)cc3F)nc3cc(C)ccn23)C1 [Compound 26, methyl (S)-2-((2-(4-(2,5-dioxopyrrolidin-1-yl)-2,6-difluorophenyl)-7-methylimidazo[1,2-a]pyridin-3-yl)methyl)morpholine-4-carboxylate] | 1.35 | > 100 | – | 2.13 | – | – | 4.22 |
| – | COC(=O)N1CCO[C@@H](Cc2c(-c3ccc(S(N)(=O)=O)cc3C)nc3cc(C)ccn23)C1 [Compound 184, methyl (S)-2-((7-methyl-2-(2-methyl-4-sulfamoylphenyl)imidazo[1,2-a]pyridin-3-yl)methyl)morpholine-4-carboxylate] | 0.0943 | > 200 | 0.0056 | 2.89 | – | – | 406 |
| – | COC(=O)N1CCO[C@@H](Cc2c(-c3c(F)cc(-c4cc[nH]n4)cc3F)nc3cc(C)ccn23)C1 [Compound 15, methyl (S)-2-((2-(2,6-difluoro-4-(1H-pyrazol-3-yl)phenyl)-7-methylimidazo[1,2-a]pyridin-3-yl)methyl)morpholine-4-carboxylate] | 0.423 | 52.6 | < 0.01 | 0.275 | B (key: A: folds of selectivity >1000; B: 200< folds of selectivity ≤1000; C: folds of selectivity ≤200) | 21.6 | 3.18 |
| – | COC(=O)N1CCO[C@@H](Cc2c(-c3ccc(S(N)(=O)=O)cc3Cl)nc3cc(C)ccn23)C1 [Compound 176, methyl (S)-2-((2-(2-chloro-4-sulfamoylphenyl)-7-methylimidazo[1,2-a]pyridin-3-yl)methyl)morpholine-4-carboxylate] | 0.0602 | > 200 | 0.0075 | 1.02 | – | – | 3.93 |
| – | COC(=O)N1CCO[C@@H](Cc2c(-c3c(F)cc(-c4ncco4)cc3F)nc3cc(C)ccn23)C1 [Compound 10, methyl (S)-2-((2-(2,6-difluoro-4-(oxazol-2-yl)phenyl)-7-methylimidazo[1,2-a]pyridin-3-yl)methyl)morpholine-4-carboxylate] | 0.513 | 15.8 | – | 0.225 | – | – | 3.71 |
| – | COC(=O)N1CCO[C@@H](Cc2c(-c3c(F)cc(N4CC=CC4=O)cc3F)nc3cc(C)ccn23)C1 [Compound 169, methyl (S)-2-((2-(2,6-difluoro-4-(2-carbonyl-2,5-dihydro-1H-pyrrol-1-yl)phenyl)-7-methylimidazo[1,2-a]pyridin-3-yl)methyl)morpholine-4-carboxylate] | 0.591 | > 100 | – | 2.74 | A (key: A: folds of selectivity >1000; B: 200< folds of selectivity ≤1000; C: folds of selectivity ≤200) | > 60 | 13.8 |
